Values of other authors as cited in US20170224756A1, “Antioxidants Against Oxidative Stress During a Stressor Event” (MERIAL INC., priority 2016, published 2017).

Tests used:
gastric lesions = details: indomethacin in rats
endothelial dysfunction = details: locally administered; human forearms after typhoid vaccination
oxidative stress = details: heat-stressed quail

## [Se] [Se/DMSO, selenium]
Gastric lesions
  enzymatic antioxidants superoxide dismutase, catalase and glutathione peroxidase: increased
  gastric lesions: significantly reduced

## O=C1O[C@H]([C@@H](O)CO)C(O)=C1O [ascorbic acid]
Endothelial dysfunction
  endothelial dysfunction, reduced vascular nitric oxide bioavailability and increased oxidative stress: partially reversible

## epigallocatechin-3-gallate [EGCG]
Oxidative stress
  heat stress induced oxidative stress: alleviates
